Reference: patent US7749728B2, “Method and system for measuring the penetration of drugs and other substances into tissue” (Cabenda Pharmaceutical Research Limited, priority 2003, dated 2010)

How the values were obtained:
[1] = weak bases; cited from earlier work
HCT-116 MCCs [2] = experiment: MCC penetration assay, effect-based (BrdUrd S-phase labeling after exposure from one side); format: cell-based, human; conditions: for decrease in drug exposure seen by cells on the far side relative to the near side / trend of BrdUrd labeling with drug concentration: 1 day after 1-h exposure; for decrease in drug exposure seen by cells on the far side relative to the near side: near-side concentration matching the effect of 10 μM on the far side; for trend of BrdUrd labeling with drug concentration: first 30 μm of tissue
Method: Standard tissue culture inserts 10 (CM 12 mm, pore size 0.4 μm, Millipore, Nepean, ON, Canada) were coated with 150 μl collagen (rat tail type I, Sigma), dissolved in 0.01 M HCl and diluted 1:4 with 60% Ethanol to 0.75 mg/ml, and allowed to dry over night. HCT-116, 0.75×10^6 in 0.5 ml growth media, were then added to the inserts 10 and incubated for 15 hours to allow the cells to attach. The cultures 16 were then incubated for 2 days in custom built growth vessels 21 (FIG. 1(b)) to form multilayered cell cultures (MCCs) 16 which are ˜150 μm in thickness. Each growth vessel 21 includes a frame 23 that held the inserts 10 completely immersed in 130 ml of stirred media (700 rpm, 25 mm stir bar) under continual gassing (5% CO2, balance air) at 37° C. The MCCs 16 were grown in batches of 8 cultures of which 6 were treated with drug and 2 were kept as untreated controls.
MCCs 16 were exposed to anthracyclines from one exposed side 18 using a polyarcylate apparatus 22 (FIG. 2) designed such that the bottom of each insert 10 is clamped against a flat block 24 of apparatus 22 with a layer of Parafilm (American National Can, Chicago, Ill., USA) sandwiched in between to ensure a complete seal. Each MCC 16 was exposed to a 7.5 ml stirred reservoir 28 kept under controlled gassing and temperature. A silicone O-ring 34 was used to seal the gap between the MCC 16 and the orifice in the reservoir 28. Once placed in the apparatus 22, MCCs 16 were allowed to equilibrate for 45 minutes, drug was then added to the growth medium at concentrations of 0.3, 1, 3 and 10 μM. After 1-hour drug exposure, the reservoirs 28 were rinsed twice with fresh media. MCCs 16 were then incubated for a second hour prior to removal from the apparatus 22 to allow initial drug wash out from the exposed side 18 only. MCCs 16 were then removed, rinsed in fresh media three times for 15 seconds and placed in a growth vessel 21 containing 2 untreated control MCCs 16. Media was replaced at 1 and 4 hours following return to the growth vessel 21, to reduce residual drug levels. Incubation with control MCCs 16 ruled out the possibility that drug wash out into the media from the exposed sides 18 of the MCCs 16 was affecting results. MCCs 16 were left for 1 or 3 days from the time of beginning drug exposure to allow manifestation of drug effect. Following this, 100 μM BrdUrd (5-bromo-2-deoxyuridine, Sigma Chemical, Oakville, ON, Canada) was added to the media and cultures incubated for 4 hours to label S-phase cells. MCCs 16 were then removed, frozen in O.C.T. medium (Tissue-TEK, Torrance, Calif., USA) and stored at −80° C. until sectioning.
MCC cryosections (10 μm) were air dried for 24 hours and then fixed in a 1:1 mixture of acetone-methanol for 10 minutes at room temperature. Slides were immediately transferred to distilled water for 10 minutes and then treated with 2 M HCl at room temperature for 1 hour followed by neutralization for 5 minutes in 0.1 M Sodium Borate. Slides were then washed in distilled water and transferred to a PBS (phosphate buffered saline) bath. Subsequent steps were each followed by a 5 minute wash in PBS. BrdUrd incorporated into DNA was detected using a 1:200 dilution of monoclonal mouse anti-BrdUrd (clone BU33, Sigma) followed by 1:100 dilution of anti-mouse peroxidase conjugate antibody (Sigma) and 1:10 dilution of metal enhanced DAB substrate (Pierce, Rockford, Ill.). Slides were then counterstained with haematoxylin, dehydrated and mounted using Permount (Fisher Scientific, Fair Lawn, N.J., USA).
The imaging system consisted of a flurouresence microscope (Zeiss III RS, Oberkochen, Germany), a cooled, monochrome CCD video camera (model 4922, Cohu, San Diego, Calif., USA), frame grabber (Scion, Frederick, Md., USA), a custom built motorized x-y stage and customized NIH-Image software (public domain program developed at the U.S. National Institutes of Health) running on a G4 Macintosh computer. […]

HCT-116 MCCs [3] = experiment: Fluorescence based evaluation of anthracycline penetration in MCCs; format: cell-based, human; conditions: immediately after 1-h, 10 µM drug exposure
Method: MCCs 16 were exposed to anthracyclines from one exposed side 18 using a polyarcylate apparatus 22 (FIG. 2) designed such that the bottom of each insert 10 is clamped against a flat block 24 of apparatus 22 with a layer of Parafilm (American National Can, Chicago, Ill., USA) sandwiched in between to ensure a complete seal. Each MCC 16 was exposed to a 7.5 ml stirred reservoir 28 kept under controlled gassing and temperature. A silicone O-ring 34 was used to seal the gap between the MCC 16 and the orifice in the reservoir 28. […] After 1-hour drug exposure, the reservoirs 28 were rinsed twice with fresh media. […]
The imaging system consisted of a flurouresence microscope (Zeiss III RS, Oberkochen, Germany), a cooled, monochrome CCD video camera (model 4922, Cohu, San Diego, Calif., USA), frame grabber (Scion, Frederick, Md., USA), a custom built motorized x-y stage and customized NIH-Image software (public domain program developed at the U.S. National Institutes of Health) running on a G4 Macintosh computer. […] For drug fluorescence visualization, MCCs were imaged using unmounted cryosections 1-hour after sectioning using a 510-555 nm excitation filter and a 575-640 nm emission filter.
Using the NIH-Image software application and user supplied algorithms, digital images of BrdUrd staining and drug fluorescence within MCC cryosections were analyzed in the following manner. […]

cells = conditions: uptake rate vs DOX; cited from earlier work
[4] = test system: multi-layered cell culture; experiment: Example 1: BrdUrd labeling in multi-layered cell culture exposed from one side; format: cell-based; conditions: one hour exposure from one side, 24 hours in fresh media; 5, 10 and 100 μM
Method: FIGS. 5 and 6 illustrate test results relating to a multi-layered cell culture 16 exposed to the anthracycline doxorubicin (DOX) (i.e. the test material). Cultures 16 were exposed to doxorubicin (at differing concentrations) from one side 18 only for one hour and then incubated for 24 hours in fresh media. Cultures 16 were then exposed to bromodeoxyuridine (BrdUrd) for two hours to label proliferating cells. BrdUrd is a thymidine analogue that is incorporated into DNA during the S phase of the cell cycle and is therefore an effective marker of cellular proliferation. Following BrdUrd exposure, cultures 16 were frozen and cyrosections taken from them. Cryosections were then immunostained to detect BrdUrd labeled S-phase cells. FIG. 6 illustrates the distribution of BrdUrd-labelled cells as a function of position within the cultures. The results clearly indicate that tissue penetration limits doxorubicin effectiveness.

[5] = test system: V79 multicellular spheroids; conditions: ~3.5 μM×h exposure, 24 hours in drug free medium before disaggregation; cited from earlier work

Compound	pKa [1]	decrease in drug exposure seen by cells on the far side relative to the near side (HCT-116 MCCs [2])	trend of BrdUrd labeling with drug concentration (HCT-116 MCCs [2])	fluorescence level on the near side relative to DOX (HCT-116 MCCs [3]) [times]	concentration at which an equal effect is exerted on either edge of the MCC (HCT-116 MCCs [2]; 1 hour exposure at 0.3, 1, 3 and 10 μM, 1 day incubation) [µM]	rate of entering cells relative to DOX (cells)	effect on proliferating cells as a function of position within the culture [4]	surviving fraction, 130 μm into the tissue [5]	surviving fraction, exposed outer layers [5]
O=C1c2c(O)ccc(O)c2C(=O)c2c(NCCNCCO)ccc(NCCNCCO)c21 [MIT, mitoxantrone]	~8.3	greater than 30 fold	increase in labeling on the near side with increasing drug concentration						
COc1cccc2c1C(=O)c1c(O)c3c(c(O)c1C2=O)C[C@@](O)(C(=O)CO)C[C@@H]3O[C@H]1C[C@H](N)[C@@H](O)[C@H](C)O1 [EPI, epirubicin]	~8.1	~10 fold	decreasing labeling with increasing drug concentration	~1.5	10	approximately twice			
COc1cccc2c1C(=O)c1c(O)c3c(c(O)c1C2=O)C[C@@](O)(C(=O)CO)C[C@@H]3O[C@H]1C[C@H](N)[C@H](O)[C@H](C)O1 [DOX, doxorubicin]	~8.3	~12 fold	decreasing labeling with increasing drug concentration				at low concentrations doxorubicin only affects cells close to the site of exposure	~0.6	~0.2
COc1cccc2c1C(=O)c1c(O)c3c(c(O)c1C2=O)C[C@@](O)(C(C)=O)C[C@@H]3O[C@H]1C[C@H](N)[C@H](O)[C@H](C)O1 [DAU, daunorubicin]	~8.3	~30 fold	decreasing labeling with increasing drug concentration	~7		3-10 times			
